# Data as given in ChEMBL document CHEMBL4619768, “Limonoids from Cipadessa baccifera” (J Nat Prod, 2020).
# Activity calls are given as the source filed them. No cut-off for these calls is given here.
# Test system: Plasmodium falciparum
# Test: Antimalarial activity against chloroquine-resistant ring-stage Plasmodium falciparum Dd2 incubated for 72 hrs by SYBR green1 dye-based assay
# Assay type: functional, organism-based
# Conditions: not given
row,Compound,Activity
1,COC(=O)[C@@H](O)[C@H]1C(C)(C)[C@H](OC(C)=O)C[C@@H]2OC3=C(C)C4=CC(=O)O[C@@H](c5ccoc5)[C@]4(C)[C@@H](OC(C)=O)[C@@H]3[C@@]21C,inactive
2,C=C1C2[C@H](O)C[C@@]3(C)[C@H](c4ccoc4)CC(=O)C[C@]13O[C@H]1[C@@H](OC(=O)[C@H](C)CC)[C@H](O)C(C)(C)[C@H](CC(=O)OC)[C@@]21C,inactive
3,COC(=O)C[C@H]1C(C)(C)[C@@H](OC(C)=O)[C@H](O)[C@@H]2OC3=C(C)C4=CC(=O)O[C@@H](c5ccoc5)[C@]4(C)[C@@H](O)[C@@H]3[C@@]21C,inactive
4,COC(=O)[C@@H](O)[C@H]1C(C)(C)[C@H](OC(C)=O)[C@H](OC(C)=O)[C@@H]2O[C@]34CC(=O)O[C@@H](c5ccoc5)[C@]3(C)[C@@H](OC(C)=O)[C@@H](C(=O)[C@@H]4C)[C@@]21C,inactive
5,COC(=O)[C@@H](O)[C@H]1C(C)(C)[C@H](OC(C)=O)C[C@@H]2O[C@]34CC(=O)O[C@@H](c5ccoc5)[C@]3(C)C[C@@H](C(=O)[C@@H]4C)[C@@]21C,inactive
6,C=C1[C@@]23CC(=O)C[C@@H](c4ccoc4)[C@]2(C)C[C@@H](OC(C)=O)[C@]1(O)[C@@]1(C)[C@@H](O3)[C@@H](OC(=O)C(C)C)[C@H](O)C(C)(C)[C@@H]1CC(=O)OC,inactive
7,C=C1C2[C@H](O)C[C@@]3(C)[C@H](c4ccoc4)CC(=O)C[C@]13O[C@H]1[C@@H](OC(=O)[C@@H](C)CC)[C@H](O)C(C)(C)[C@H](CC(=O)OC)[C@@]21C,inactive
8,COC(=O)C[C@H]1C(C)(C)[C@@H](O)[C@H](OC(C)=O)[C@@H]2OC3=C(C)C4=CC(=O)O[C@@H](c5ccoc5)[C@]4(C)[C@@H](O)[C@@H]3[C@@]21C,inactive
9,COC(=O)[C@@H](O)[C@H]1C(C)(C)[C@H](OC(C)=O)C[C@@H]2O[C@]34CC(=O)O[C@@H](c5ccoc5)[C@]3(C)[C@@H](OC(C)=O)[C@@H](C(=O)[C@@H]4C)[C@@]21C,inactive
10,COC(=O)[C@@H](O)[C@H]1C(C)(C)[C@H](OC(C)=O)[C@H](OC(C)=O)[C@@H]2O[C@]34CC(=O)O[C@@H](c5ccoc5)[C@]3(C)C[C@@H](C(=O)[C@@H]4C)[C@@]21C,inactive

# Same assay, conditions: Dd2, 72 h
row,IC50 [µM],Compound
1,28,COC(=O)C[C@H]1C(C)(C)[C@@H](O)[C@H](OC(=O)C(C)C)[C@@H]2O[C@]34CC(=O)O[C@@H](c5ccoc5)[C@]3(C)C[C@@H](C(=O)[C@@H]4C)[C@@]21C
2,23.1,C=C1[C@@]23CC(=O)C[C@@H](c4ccoc4)[C@]2(C)C[C@@H](OC(C)=O)[C@]1(O)[C@@]1(C)[C@@H](O3)[C@@H](OC(=O)[C@H](C)CC)[C@H](O)C(C)(C)[C@@H]1CC(=O)OC
3,16.3,C=C1[C@]2(O)CC[C@@]3(C)[C@H](c4ccoc4)CC(=O)C[C@]13O[C@H]1[C@@H](OC(=O)[C@H](C)CC)[C@H](O)C(C)(C)[C@H](CC(=O)OC)[C@]12C
4,16.9,COC(=O)[C@@H](O)[C@H]1C(C)(C)[C@@H](O)[C@H](OC(=O)C(C)C)[C@@H]2O[C@]34CC(=O)O[C@@H](c5ccoc5)[C@]3(C)C[C@@H](C(=O)[C@@H]4C)[C@@]21C
5,12.3,C=C1[C@]2(O)CC[C@@]3(C)[C@H](c4ccoc4)CC(=O)C[C@]13O[C@H]1[C@@H](OC(=O)[C@@H](C)CC)[C@H](O)C(C)(C)[C@H](CC(=O)OC)[C@]12C
6,20,C=C1[C@]2(O)CC[C@@]3(C)[C@H](c4ccoc4)CC(=O)C[C@]13O[C@H]1[C@@H](OC(=O)C(C)C)[C@H](O)C(C)(C)[C@H](CC(=O)OC)[C@]12C

row,Compound,IC50 [µM]
1,C[C@@H]1CC[C@H]2[C@@H](C)C(=O)O[C@@H]3O[C@@]4(C)CC[C@@H]1[C@]32OO4 [ARTEMISININ],0.013
